The source of these data is US12582666B2, “Low dose therapeutic treatment” (Syqe Medical Ltd., priority 2016, dated 2026).

For data set [1], the target named is T1, 5-HT1A receptor (Homo sapiens, UniProt P08908).
T1 sequence (P08908 1-422): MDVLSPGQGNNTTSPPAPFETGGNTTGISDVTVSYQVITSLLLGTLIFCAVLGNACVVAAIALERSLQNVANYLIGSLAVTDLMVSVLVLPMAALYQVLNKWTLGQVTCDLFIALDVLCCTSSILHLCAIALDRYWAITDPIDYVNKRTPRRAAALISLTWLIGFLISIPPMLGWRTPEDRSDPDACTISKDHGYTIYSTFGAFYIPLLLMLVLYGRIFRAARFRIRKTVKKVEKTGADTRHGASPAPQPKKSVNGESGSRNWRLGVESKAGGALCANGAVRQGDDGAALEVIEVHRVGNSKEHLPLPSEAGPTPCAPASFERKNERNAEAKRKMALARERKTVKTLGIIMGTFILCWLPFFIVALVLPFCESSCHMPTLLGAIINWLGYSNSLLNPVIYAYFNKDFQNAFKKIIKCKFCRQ
The settings on record: cited from earlier work.

Data set [2] has as its system CB1 and CB2 receptors. The settings on record: comparison of the two receptors; cited from earlier work.
For data set [3], the target named is GPR55 (Homo sapiens, UniProt Q9Y2T6). The settings on record: cited from earlier work.
For data set [4] the following is noted: cited from earlier work.
Data set [5] has as its system pain. The data set can be described thus: FIG. 10: pain treated with 0.5 mg inhaled THC doses at intervals of at least two hours. It counts as in vivo, human. As to the method: FIG. 10 is a graphical representation of a regimen for the treatment of pain by pulmonary delivery of 0.5 mg THC doses delivered in time intervals of at least two hours, according to some embodiments of the invention.
In this use over a time period of 16 hours, 4 doses of 0.5 mg THC each were provided at time intervals of at least two hours between sequential doses, indicated by the grey triangles. The black line represents the symptom level, in this case pain, and the grey line represents psychoactive effects.
The x-axis represents the time of day, and the y-axis represents an arbitrary scale for indicating symptom severity and level of psychoactivity. The scale represents, based on user reports, a grade of the symptoms and a grade of the psychoactive effects, for example compared to a baseline report collected from the patient before treatment.

Data set [6] has as its system nausea of a patient undergoing chemotherapy. The data set can be described thus: FIG. 11: nausea of a chemotherapy patient treated with 0.5 mg inhaled THC doses. Particulars: first 0.5 mg THC dose 30 minutes before chemotherapy. It counts as in vivo, human. As to the method: FIG. 11 is a graphical representation of the treatment effect achieved by pulmonary delivery of 0.5 mg THC doses, delivered at time intervals of at least two hours, according to some embodiments of the invention.
In this example, nausea levels of a patient undergoing chemotherapy are shown, as indicated by the arbitrary Y-axis scale. The black line depicts a typical nausea effect that is often witnessed when no special anti-nausea treatment is provided (optionally other than the conventional prophylactic treatment provided normally intravenously in chemotherapy sessions).
Chemotherapy commenced at 7:00 AM, as indicated by the black arrow. […] It may remain high when not treated or even with conventional treatment, although the degree of nausea may fluctuate.
The gray line depicts nausea levels under treatment with 0.5 mg doses of THC, delivered in intervals of at least two hours, indicated by the grey triangles. […] Two additional doses of 0.5 mg THC each, delivered at 12:30 and at 19:00, sufficed to allow the patient to combat the nausea throughout the day.

Data set [7] has as its system cancer patients suffering from advanced symptoms and/or side effects of chemotherapy. In words: Inventors' experiments: low dose inhaled THC, at least two hours between doses. It counts as in vivo, human. Here is the method:
It has been shown by inventors in experiments performed that an inhaled THC dose of 0.2-2 mg may provide sufficient symptom alleviation for a time period of at least 2 hours, at least 3 hours, at least 4 hours, at least 6 hours or intermediate or longer time periods. […] Other examples of symptoms which may be alleviated by prescribing a low dose regimen may include adverse effects of chemotherapy and/or vomiting and/or weight loss and/or insomnia and/or euphoria and/or drowsiness and/or psychomotor effects and/or cognitive effects, and/or agitation and/or depression.
Cancer patients suffering from advanced symptoms and/or side effects of chemotherapy were treated in accordance with the above described regimen, being delivered a dose of between 0.2-2 mg THC at a single delivery event and waiting at least two hours before the next dose. The patients voluntarily reported their conditions.
In a first case, a cancer patient was admitted to hospital for chemotherapy. They were previously prescribed cannabis for pain, vomiting, nausea and weight loss, which they took by smoking cigarettes. […] In the experiment, the patient was prescribed 3×0.5 mg THC per day, delivered using an inhaler device for example as described hereinabove. The first dose was to be taken 30 minutes before chemotherapy. The patient was allowed to take additional inhalations as needed. […] The patient inhaled the 3 prescribed doses only, and no other medication was prescribed or taken. Later, the same patient readmitted to hospital for an additional round of chemotherapy. This time they chose to inhale THC in four 0.5 mg doses, a first dose in the morning before chemotherapy, second and third doses taken concomitantly at midday (amounting to a single 1 mg dose) and a fourth dose in the evening.
In a second case, a cancer patient was admitted to the hospital for severe pain and in order to resume treatment that they chose to terminate earlier. They were previously prescribed cannabis for pain, cachexia and nausea, in addition to other drugs. Throughout the treatment, they received a continuous morphine drip (400-600 mg) with additional morphine treatment upon need. Before being hospitalized, they had not eaten for a week, suffered from sleep deprivation and was depressed. In the hospital they were provided with an inhaler for example as described hereinabove and during the first day of use they inhaled 0.5 mg THC doses 18 times a day, which included 4 previously prescribed doses of 0.5 mg and many demands for additional pain relief. On the next day they reduced the intake to 1 mg inhalations, 4 times a day, continuing for a period of 8 days.

Setting [8] is: single inhaled cannabis dose, Syqe Inhaler.

Sequence of GPR55 (Q9Y2T6 whole entry, species assumed): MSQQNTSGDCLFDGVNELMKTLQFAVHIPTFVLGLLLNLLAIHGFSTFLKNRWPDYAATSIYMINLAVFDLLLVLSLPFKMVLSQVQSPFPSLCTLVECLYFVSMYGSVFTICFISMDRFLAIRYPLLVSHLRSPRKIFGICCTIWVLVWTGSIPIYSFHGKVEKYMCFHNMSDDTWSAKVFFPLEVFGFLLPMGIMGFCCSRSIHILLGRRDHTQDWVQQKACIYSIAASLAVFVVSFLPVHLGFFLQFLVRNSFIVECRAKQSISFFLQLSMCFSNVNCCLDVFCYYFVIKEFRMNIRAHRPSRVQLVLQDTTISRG

For the molecule `C=C(C)[C@@H]1CCC(C)=C[C@H]1c1c(O)cc(CCCCC)cc1O` [CBD, Cannabidiol], in data set [1], the “action at 5-HT1A receptor” value is reported as 5-HT1A receptor agonist. Moreover, the “affinity for the CB1 and CB2 receptors” value in data set [2] is recorded as “greater affinity for the CB2 receptor than for the CB1 receptor”. Further, the “action at GPR55” value in data set [3] was “antagonist”.

Regarding `CCCCCc1cc(O)c2c(c1)OC(C)(C)[C@@H]1CCC(C)=C[C@@H]21` [THC, Δ9-tetrahydrocannabinol], in data set [4] (single 15.1±0.1 mg dose of cannabis inhaled with Syqe Inhaler, eight patients), the “Tmax±SD” value is 3 ± 1 min. Further, in data set [4] (setting [8]), the “interindividual variability of Cmax” value is listed as 25.3% and the “plasma Cmax increase per mg Δ(9)-THC administered” value is 12.3 ng/mL/mg THC. In addition, in data set [5] (0.5 mg THC inhaled), the “time after dose at which pain level begins to rise again” value is “about 2 hours”. The “pain level after first dose” value in data set [5] (0.5 mg THC inhaled at 6:30, arbitrary scale from user reports) was “effective to dramatically reduce the pain level”. Moreover, the “psychoactivity after first dose” value in data set [5] (0.5 mg THC inhaled, arbitrary scale from user reports) was “A rise in psychoactivity occurs”. In data set [6], the “maximum nausea level reached” value is given as “significant reduction in the maximum level reached” and the onset of nausea result is reported as “significant delay in the onset of nausea”. The “affinity for the CB1 and CB2 receptors” value in data set [2] was “approximately equal affinity for the CB1 and CB2 receptors”. For the same molecule, the eating result in data set [7] (cancer patient, 0.5 mg THC 18 times on first day, then 1 mg 4 times a day for 8 days, with morphine drip) is “ate 3 meals per day”. Besides, the mood entry in data set [7] (cancer patient, 3×0.5 mg THC per day by inhaler) is listed as “significantly improved mood”. For the same molecule, the mood result in data set [7] (cancer patient, inhaled THC with morphine drip) is given as “significant mood improvement”. In addition, in data set [7] (inhaled THC dose of 0.2-2 mg), the “time period of sufficient symptom alleviation” value was “at least 2 hours”. Moreover, the “treatment outcome in additional round of chemotherapy” value in data set [7] (same patient, four 0.5 mg inhaled THC doses) is given as “effective”.
